{"source": "patent US8686028B2", "about": "“Substituted benzfurochromenes and related compounds for the prevention and treatment of bone related disorders” (Council of Scientific & Industrial Research, priority 2008, dated 2014)", "key": {"[1]": {"system": "Calvarial osteoblast cells", "assay": "MTT cell proliferation assay", "assay_type": "cell-based, rat", "details": "10^−10 M to 10^−6M, 24 hrs", "experimental": "(§1) Neonatal rat calvarial cell cultures are prepared as described previously (Endocrinology 145:3451) using slight modification. Briefly, for primary osteoblast cell cultures, frontal and parietal bones from Sprague-Dawley rat neonates (1-3 day old) are digested in 0.1% collagenase/0.1% dispase in α-MEM to obtain 5 sequential digests. The second through fifth digests are combined and grown to confluence at 37° C. and 5% CO2 in air in α-MEM, supplemented with 10% fetal bovine serum (FBS), 2 mM glutamine, 100 U/ml penicillin-streptomycin, Non-essential amino acid solution and sodium pyruvate.\nMTT [3-(4,5-dimethylthiazol-2-yl)-2,5-diphenyltetrazolium bromide] assay, first described by Mosmann in 1983, is based on the ability of a mitochondrial dehydrogenase enzyme from viable cells to cleave the tetrazolium rings of the pale yellow MTT and form a dark blue formazan crystals which is largely impermeable to cell membranes, thus resulting in its accumulation within healthy cells. Solubilisation of the cells by the addition of a detergent results in the liberation of the crystals which are solubilized. The number of surviving cells is directly proportional to the level of the formazan product created. The color can then be quantified using a simple colorimetric assay. The results can be read on a multiwell scanning spectrophotometer (Mosmann T. Rapid colorimetric assay for cellular growth and survival: application to proliferation and cytotoxicity assays. J Immunol Methods. 1983 Dec. 16; 65(1-2):55-63).\nCalvarial osteoblast cells plated at a density of 2.0×10^3 cells/200 ul in 96 wells plates. Cells were grown to 60% confluency and then treated with following compounds S006-1709, S006-1710, 5006-1711, S006-1713 and; S006-1714 at concentrations ranging from 10^−10 M to 10^−6M for 24 hrs. After treatment media was removed and 10 mM MTT was added solution in phenol red free DMEM media. After an incubation of 4 hrs the MTT solution was removed. Blue colored crystals were formed which were dissolved in DMSO and absorbance was read on ELISA plate reader at 570 nm wavelength."}, "Calvarial osteoblasts [2]": {"system": "Calvarial osteoblasts", "assay": "Alkaline phosphatase (ALP) activity for osteoblast differentiation, calvarial osteoblasts", "assay_type": "cell-based, rat", "details": "calvarial osteoblasts, 48 h, 10^−16M to 10^−6M", "experimental": "as §1\n70 to 80% confluent Calvarial osteoblasts were treated with μM S006-1709 for 48 h in the presence of ascorbate and glycerophosphate. At the end of incubation period, total ALP activity was measured with a method using p-nitrophenylphosphate (PNPP) as substrate. The reaction mixture contained diethanolamine buffer (1 mol/L, pH 9.8), 0.5 mmol/L MgCl2.6H2O, and 10 mmol/L PNPP. ALP activity was measured by taking OD of the amount of colored product formed by the dephosphorylation of PNPP at 405 nm. […] In addition, the effect of S006-1709 on mineralization of calvarial osteoblasts was studied.\n(§2) We then studied its effect in osteoblast differentiation in both calvarial and bone marrow osteoblasts. Confluent calvarial osteoblasts (70 to 80%) were treated with S006-1710 for 48 h in the presence of ascorbate and glycerophosphate at concentrations ranging from 10^−16M to 10^−6M. At the end of incubation period, total ALP activity was measured with the same method used previously using p-nitrophenylphosphate (PNPP) as substrate.\n70 to 80% confluent Calvarial osteoblasts were treated with S007-1351 for 48 h in the presence of ascorbate and glycerophosphate. At the end of incubation period, total ALP activity was measured with a method using p-nitrophenylphosphate (PNPP) as substrate. The reaction mixture contained diethanolamine buffer (1 mol/L, pH 9.8), 0.5 mmol/L MgCl2.6H2O, and 10 mmol/L PNPP. ALP activity was measured by taking OD of the amount of colored product formed by the dephosphorylation of PNPP at 405 nm.\n70 to 80% confluent calvarial osteoblasts were treated with S007-1352 for 48 h in the presence of ascorbate and glycerophosphate at concentrations ranging from 10^−12M to 10^−6 M. At the end of incubation period, total ALP activity was measured with the same method used previously using p-nitrophenylphosphate (PNPP) as substrate."}, "[3]": {"system": "bone marrow derived osteoblasts", "assay": "ALP activity in bone marrow derived osteoblasts", "assay_type": "cell-based", "details": "10^−16M to 10^−6M", "experimental": "as §2"}, "Calvarial osteoblasts [4]": {"system": "Calvarial osteoblasts", "assay": "Mineralization of calvarial osteoblasts (Alizarin red extraction)", "assay_type": "cell-based, rat", "details": "10^−12 M and 10^−10 M"}, "bone marrow osteoblasts": {"system": "bone marrow osteoblasts", "assay": "Mineralization of bone marrow osteoblasts (Alizarin red extraction)", "assay_type": "cell-based", "details": "10^−12M and 10^−10 M, 18 d bone marrow culture", "from_the_text": "In addition, the effect of S006-1709 on mineralization of bone marrow osteoblasts was also studied.\nIn addition, the effect of S006-1710 on mineralization of bone marrow osteoblasts was also studied."}, "[5]": {"system": "ovariectomized immature female rats", "assay": "Estrogenicity, uterine fresh weight in ovariectomized immature female rats", "assay_type": "in vivo, rat", "details": "10 mg/Kg oral", "experimental": "(§3) 21 day old immature female rats (25-30 grams) were ovariectomized and given 7 days post-operative rest. Thereafter they were treated orally with the test agent (10 mg/Kg body weight) or with vehicle or Ethynyl estradiol, the reference standard for three consecutive days. For anti-estrogenicity, other than the test chemical, ethynyl estradiol (0.01 mg/kg) was given at 15 minutes interval before the test chemical. Autopsy was done 24 h after last treatment and uterine fresh weight was taken."}, "[6]": {"system": "ovariectomized immature female rats", "assay": "Anti-estrogenicity, uterine fresh weight with ethynyl estradiol co-treatment", "assay_type": "in vivo, rat", "details": "10 mg/Kg oral plus ethynyl estradiol 0.01 mg/kg", "experimental": "as §3"}}}
{"smiles": "O=c1c(-c2ccccc2O)coc2cc(O)ccc12", "note": "[Compound S006-1711, 7-Hydroxy-3-(2-hydroxy-phenyl)-chromen-4-one]", "values": [{"measurement": "effect on osteoblast proliferation (MTT)", "setting": "[1]", "value": "did not have any effect"}, {"measurement": "osteoblast ALP activity vs vehicle control", "setting": "Calvarial osteoblasts [2]", "value": "stimulated ALP activity"}, {"measurement": "ALP activity in bone marrow derived osteoblasts", "setting": "[3]", "value": "stimulated ALP activity"}, {"measurement": "mineralization of calvarial osteoblasts (nascent calcium deposition, Alizarin red)", "setting": "Calvarial osteoblasts [4]", "value": "stimulated mineralization"}, {"measurement": "mineralization of bone marrow osteoblasts (nascent calcium deposition, Alizarin red)", "setting": "bone marrow osteoblasts", "value": "stimulated mineralization"}, {"measurement": "estrogenicity (in words)", "setting": "[5]", "value": "estrogenic"}, {"measurement": "Estrogenic Activity, % (second line of cell)", "setting": "[5]; relative to vehicle", "value": 192, "unit": "%"}, {"measurement": "Estrogenic Activity (uterine fresh weight)", "setting": "[5]; three consecutive days, vehicle 16.46", "value": 48.13}, {"measurement": "Anti-Estrogenic Activity (uterine fresh weight)", "setting": "[6]", "value": 85.16}, {"measurement": "anti-estrogenicity (in words)", "setting": "[6]", "value": "not found to be anti-estrogenic"}, {"measurement": "Anti-Estrogenic Activity, % (second line of cell)", "setting": "[6]; relative to ethynyl estradiol", "value": 13, "unit": "%"}, {"measurement": "melting point", "value": "196 to 198", "unit": "°C"}]}
